According to patent US8952024B2, “Herbicidal pyrimidone derivatives” (E I du Pont de Nemours and Company, priority 2009, dated 2015):

What was measured:
Format in all cases: in vivo
wild oat (Avena fatua) = assay: Test B pre-/postemergence plant response
In short: (§1)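 Each species received compound formulated in non-phytotoxic solvent with surfactant, either at planting into a loam and sand blend or as a foliar spray once plants reached 2 to 18 cm in peat-based medium. Plants stayed in the greenhouse 13 to 15 days before visual evaluation against controls, scored 0 (no effect) to 100 (complete control).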

[1] = test system: green foxtail (Setaria viridis); assay: Test B pre-/postemergence plant response
In short: as §1

[2] = test system: Surinam grass (Brachiaria decumbens); assay: Test B pre-/postemergence plant response
In short: as §1

[3] = test system: johnsongrass (Sorghum halepense); assay: Test B pre-/postemergence plant response
In short: as §1

corn (Zea mays) = assay: Test B pre-/postemergence plant response
In short: as §1

[4] = test system: ragweed (common ragweed, Ambrosia elatior); assay: Test B pre-/postemergence plant response
In short: as §1

[5] = test system: blackgrass (Alopecurus myosuroides); assay: Test B pre-/postemergence plant response
In short: as §1

[6] = test system: giant foxtail (Setaria faberii); assay: Test B pre-/postemergence plant response
In short: as §1

[7] = test system: goosegrass (Eleusine indica); assay: Test B pre-/postemergence plant response
In short: as §1

[8] = test system: lambsquarters (Chenopodium album); assay: Test B pre-/postemergence plant response
In short: as §1

[9] = test system: pigweed (Amaranthus retroflexus); assay: Test B pre-/postemergence plant response
In short: as §1

[10] = test system: umbrella sedge (Cyperus difformis); assay: Test B flooded paddy test; settings: for Plant response rating, Flood, Sedge, Umbrella: 250 g ai/ha, flooded paddy test, visual rating on 0 to 100 scale (0 no effect, 100 complete control) after 13 to 15 days; for Plant response rating, Sedge, Umbrella: Flood (flooded paddy test), 13 to 15 days
In short: (§2)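 Post-flood paddy application: compounds are introduced into water 3 cm deep over the soil, reaching plants at the 2-leaf stage. The water level is maintained, and after 13–15 days under greenhouse conditions, response is judged by eye relative to controls, where 100 means complete control.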

rice (Oryza sativa) = assay: Test B flooded paddy test; settings: for Plant response rating, Flood, Rice: 250 g ai/ha, flooded paddy test, visual rating on 0 to 100 scale (0 no effect, 100 complete control) after 13 to 15 days; for Plant response rating, Rice: Flood (flooded paddy test), 13 to 15 days
In short: as §2

[11] = 31 g ai/ha, postemergence, scale 0 to 100, 0 is no effect, 100 is complete control
[12] = Postemergence, 62 g ai/ha, scale 0 (no effect) to 100 (complete control), 13 to 15 days
[13] = Postemergence, 125 g ai/ha, visual rating after 13 to 15 days, scale 0 (no effect) to 100 (complete control)
[14] = Postemergence, 250 g ai/ha, scale 0 to 100 (0 no effect, 100 complete control)
[15] = Preemergence, 31 g ai/ha, scale 0 to 100 (0 no effect, 100 complete control)
[16] = Preemergence, 62 g ai/ha, scale 0 to 100 (0 no effect, 100 complete control)
[17] = Preemergence, 125 g ai/ha, scale 0 to 100, 0 no effect, 100 complete control
[18] = 250 g ai/ha, Preemergence, 0 to 100 scale
[19] = 31 g ai/ha, scale of 0 to 100 where 0 is no effect and 100 is complete control
[20] = 62 g ai/ha, scale of 0 to 100 where 0 is no effect and 100 is complete control
[21] = 125 g ai/ha, scale 0 to 100, 0 is no effect, 100 is complete control

Compound: O=C1CCCC(O)=C1C(=O)c1cnc(-c2ccccc2)n(CC2CCCO2)c1=O (centres unmarked) [Compound 59]
- Plant response rating, Oat, Wild (wild oat (Avena fatua); [11]): 30
- Plant response rating, Oat, Wild (wild oat (Avena fatua); [12]): 40
- Plant response rating, Oat, Wild (wild oat (Avena fatua); [13]): 55
- Plant response rating, Oat, Wild (wild oat (Avena fatua); [14]): 80
- Plant response rating, Oat, Wild (wild oat (Avena fatua); [15]): 0
- Plant response rating, Oat, Wild (wild oat (Avena fatua); [16]): 0
- Plant response rating, Oat, Wild (wild oat (Avena fatua); [17]): 0
- Plant response rating, Foxtail, Green [1, 11]: 50
- Plant response rating, Foxtail, Green [1, 18]: 98
- Plant response rating, Foxtail, Green [1, 12]: 70
- Plant response rating, Foxtail, Green [1, 13]: 70
- Plant response rating, Foxtail, Green [1, 14]: 70
- Plant response rating, Foxtail, Green [1, 16]: 70
- Plant response rating, Foxtail, Green [1, 17]: 90
- Plant response rating, Surinam Grass [2, 11]: 75
- Plant response rating, Surinam Grass [2, 12]: 80
- Plant response rating, Surinam Grass [2, 13]: 90
- Plant response rating, Surinam Grass [2, 14]: 90
- Plant response rating, Surinam Grass [2, 15]: 5
- Plant response rating, Surinam Grass [2, 16]: 75
- Plant response rating, Surinam Grass [2, 17]: 85
- Plant response rating, Johnsongrass [3, 18]: 90
- Plant response rating, Johnsongrass [3, 12]: 75
- Plant response rating, Johnsongrass [3, 13]: 100
- Plant response rating, Johnsongrass [3, 14]: 100
- Plant response rating, Johnsongrass [3, 17]: 80
- Plant response rating, Corn (corn (Zea mays); [18]): 0
- Plant response rating, Corn (corn (Zea mays); [12]): 0
- Plant response rating, Corn (corn (Zea mays); [13]): 75
- Plant response rating, Corn (corn (Zea mays); [14]): 75
- Plant response rating, Corn (corn (Zea mays); [15]): 0
- Plant response rating, Corn (corn (Zea mays); [16]): 0
- Plant response rating, Corn (corn (Zea mays); [17]): 0
- Plant response rating, Ragweed [4, 11]: 75
- Plant response rating, Ragweed [4, 12]: 80
- Plant response rating, Ragweed [4, 13]: 90
- Plant response rating, Ragweed [4, 14]: 95
- Plant response rating, Ragweed [4, 15]: 75
- Plant response rating, Ragweed [4, 16]: 90
- Plant response rating, Ragweed [4, 17]: 90
- Plant response rating, Blackgrass [5, 11]: 10
- Plant response rating, Blackgrass [5, 18]: 40
- Plant response rating, Blackgrass [5, 12]: 35
- Plant response rating, Blackgrass [5, 13]: 40
- Plant response rating, Blackgrass [5, 14]: 60
- Plant response rating, Blackgrass [5, 15]: 0
- Plant response rating, Blackgrass [5, 16]: 0
- Plant response rating, Blackgrass [5, 17]: 30
- Plant response rating, Foxtail, Giant [6, 11]: 75
- Plant response rating, Foxtail, Giant [6, 18]: 75
- Plant response rating, Foxtail, Giant [6, 12]: 90
- Plant response rating, Foxtail, Giant [6, 13]: 95
- Plant response rating, Foxtail, Giant [6, 14]: 95
- Plant response rating, Foxtail, Giant [6, 15]: 0
- Plant response rating, Foxtail, Giant [6, 16]: 0
- Plant response rating, Foxtail, Giant [6, 17]: 60
- Plant response rating, Goosegrass [7, 11]: 75
- Plant response rating, Goosegrass [7, 18]: 100
- Plant response rating, Goosegrass [7, 12]: 80
- Plant response rating, Goosegrass [7, 13]: 95
- Plant response rating, Goosegrass [7, 14]: 95
- Plant response rating, Goosegrass [7, 15]: 98
- Plant response rating, Goosegrass [7, 16]: 98
- Plant response rating, Goosegrass [7, 17]: 100
- Plant response rating, Lambsquarters [8, 11]: 95
- Plant response rating, Lambsquarters [8, 18]: 100
- Plant response rating, Lambsquarters [8, 12]: 98
- Plant response rating, Lambsquarters [8, 13]: 100
- Plant response rating, Lambsquarters [8, 14]: 100
- Plant response rating, Lambsquarters [8, 15]: 98
- Plant response rating, Lambsquarters [8, 16]: 100
- Plant response rating, Lambsquarters [8, 17]: 100
- Plant response rating, Pigweed [9, 12]: 100
- Plant response rating, Pigweed [9, 13]: 100
- Plant response rating, Pigweed [9, 14]: 100
- Plant response rating, Pigweed [9, 15]: 90
- Plant response rating, Pigweed [9, 16]: 100
- Plant response rating, Pigweed [9, 17]: 100
- Plant response rating, Flood, Sedge, Umbrella [10]: 75
- Plant response rating, Sedge, Umbrella [10, 19]: 30
- Plant response rating, Sedge, Umbrella [10, 20]: 40
- Plant response rating, Sedge, Umbrella [10, 21]: 50
- Plant response rating, Flood, Rice (rice (Oryza sativa)): 15
- Plant response rating, Rice (rice (Oryza sativa); [19]): 0
- Plant response rating, Rice (rice (Oryza sativa); [20]): 15
- Plant response rating, Rice (rice (Oryza sativa); [21]): 15

Compound: CCCCc1ncc(C(=O)C2=C(O)CCCC2=O)c(=O)n1-c1cccc(C)c1 [Compound 63]
- Plant response rating, Oat, Wild (wild oat (Avena fatua); [11]): 0
- Plant response rating, Oat, Wild (wild oat (Avena fatua); [12]): 0
- Plant response rating, Oat, Wild (wild oat (Avena fatua); [13]): 5
- Plant response rating, Oat, Wild (wild oat (Avena fatua); [14]): 20
- Plant response rating, Oat, Wild (wild oat (Avena fatua); [15]): 0
- Plant response rating, Oat, Wild (wild oat (Avena fatua); [16]): 0
- Plant response rating, Oat, Wild (wild oat (Avena fatua); [17]): 0
- Plant response rating, Foxtail, Green [1, 11]: 60
- Plant response rating, Foxtail, Green [1, 18]: 30
- Plant response rating, Foxtail, Green [1, 12]: 70
- Plant response rating, Foxtail, Green [1, 13]: 70
- Plant response rating, Foxtail, Green [1, 14]: 90
- Plant response rating, Foxtail, Green [1, 15]: 0
- Plant response rating, Surinam Grass [2, 11]: 10
- Plant response rating, Surinam Grass [2, 12]: 25
- Plant response rating, Surinam Grass [2, 13]: 35
- Plant response rating, Surinam Grass [2, 14]: 75
- Plant response rating, Surinam Grass [2, 15]: 0
- Plant response rating, Surinam Grass [2, 16]: 0
- Plant response rating, Surinam Grass [2, 17]: 55
- Plant response rating, Johnsongrass [3, 18]: 60
- Plant response rating, Johnsongrass [3, 12]: 10
- Plant response rating, Johnsongrass [3, 13]: 10
- Plant response rating, Johnsongrass [3, 14]: 15
- Plant response rating, Johnsongrass [3, 15]: 0
- Plant response rating, Johnsongrass [3, 16]: 0
- Plant response rating, Johnsongrass [3, 17]: 55
- Plant response rating, Corn (corn (Zea mays); [18]): 0
- Plant response rating, Corn (corn (Zea mays); [12]): 20
- Plant response rating, Corn (corn (Zea mays); [13]): 25
- Plant response rating, Corn (corn (Zea mays); [14]): 45
- Plant response rating, Corn (corn (Zea mays); [15]): 0
- Plant response rating, Corn (corn (Zea mays); [16]): 0
- Plant response rating, Corn (corn (Zea mays); [17]): 0
- Plant response rating, Ragweed [4, 11]: 70
- Plant response rating, Ragweed [4, 12]: 75
- Plant response rating, Ragweed [4, 13]: 80
- Plant response rating, Ragweed [4, 14]: 80
- Plant response rating, Ragweed [4, 15]: 65
- Plant response rating, Ragweed [4, 16]: 65
- Plant response rating, Ragweed [4, 17]: 70
- Plant response rating, Blackgrass [5, 11]: 30
- Plant response rating, Blackgrass [5, 18]: 40
- Plant response rating, Blackgrass [5, 12]: 35
- Plant response rating, Blackgrass [5, 13]: 35
- Plant response rating, Blackgrass [5, 14]: 50
- Plant response rating, Blackgrass [5, 15]: 0
- Plant response rating, Blackgrass [5, 16]: 0
- Plant response rating, Blackgrass [5, 17]: 5
- Plant response rating, Foxtail, Giant [6, 11]: 60
- Plant response rating, Foxtail, Giant [6, 18]: 10
- Plant response rating, Foxtail, Giant [6, 12]: 65
- Plant response rating, Foxtail, Giant [6, 13]: 65
- Plant response rating, Foxtail, Giant [6, 14]: 80
- Plant response rating, Foxtail, Giant [6, 15]: 0
- Plant response rating, Foxtail, Giant [6, 16]: 0
- Plant response rating, Foxtail, Giant [6, 17]: 0
- Plant response rating, Goosegrass [7, 11]: 70
- Plant response rating, Goosegrass [7, 18]: 100
- Plant response rating, Goosegrass [7, 12]: 70
- Plant response rating, Goosegrass [7, 13]: 70
- Plant response rating, Goosegrass [7, 14]: 75
- Plant response rating, Goosegrass [7, 15]: 90
- Plant response rating, Goosegrass [7, 16]: 98
- Plant response rating, Goosegrass [7, 17]: 100
- Plant response rating, Lambsquarters [8, 18]: 100
- Plant response rating, Lambsquarters [8, 12]: 95
- Plant response rating, Lambsquarters [8, 13]: 98
- Plant response rating, Lambsquarters [8, 14]: 98
- Plant response rating, Lambsquarters [8, 15]: 98
- Plant response rating, Lambsquarters [8, 16]: 98
- Plant response rating, Lambsquarters [8, 17]: 100
- Plant response rating, Pigweed [9, 11]: 85
- Plant response rating, Pigweed [9, 12]: 95
- Plant response rating, Pigweed [9, 13]: 95
- Plant response rating, Pigweed [9, 14]: 100
- Plant response rating, Pigweed [9, 15]: 95
- Plant response rating, Pigweed [9, 16]: 98
- Plant response rating, Pigweed [9, 17]: 100
- Plant response rating, Flood, Sedge, Umbrella [10]: 0
- Plant response rating, Sedge, Umbrella [10, 19]: 0
- Plant response rating, Sedge, Umbrella [10, 20]: 0
- Plant response rating, Sedge, Umbrella [10, 21]: 0
- Plant response rating, Flood, Rice (rice (Oryza sativa)): 10
- Plant response rating, Rice (rice (Oryza sativa); [19]): 0
- Plant response rating, Rice (rice (Oryza sativa); [20]): 0
- Plant response rating, Rice (rice (Oryza sativa); [21]): 0
